Test results from US10519152B2, “Compounds and their use in treating cancer” (AstraZeneca AB, priority 2017, dated 2019).

Target: T1, Estrogen Receptor (ERα) in MCF-7 human ductal carcinoma breast cell line (Homo sapiens, UniProt P03372)
T1 construct: endogenous in cells; host or cells: MCF-7
T1 sequence (P03372 1-595): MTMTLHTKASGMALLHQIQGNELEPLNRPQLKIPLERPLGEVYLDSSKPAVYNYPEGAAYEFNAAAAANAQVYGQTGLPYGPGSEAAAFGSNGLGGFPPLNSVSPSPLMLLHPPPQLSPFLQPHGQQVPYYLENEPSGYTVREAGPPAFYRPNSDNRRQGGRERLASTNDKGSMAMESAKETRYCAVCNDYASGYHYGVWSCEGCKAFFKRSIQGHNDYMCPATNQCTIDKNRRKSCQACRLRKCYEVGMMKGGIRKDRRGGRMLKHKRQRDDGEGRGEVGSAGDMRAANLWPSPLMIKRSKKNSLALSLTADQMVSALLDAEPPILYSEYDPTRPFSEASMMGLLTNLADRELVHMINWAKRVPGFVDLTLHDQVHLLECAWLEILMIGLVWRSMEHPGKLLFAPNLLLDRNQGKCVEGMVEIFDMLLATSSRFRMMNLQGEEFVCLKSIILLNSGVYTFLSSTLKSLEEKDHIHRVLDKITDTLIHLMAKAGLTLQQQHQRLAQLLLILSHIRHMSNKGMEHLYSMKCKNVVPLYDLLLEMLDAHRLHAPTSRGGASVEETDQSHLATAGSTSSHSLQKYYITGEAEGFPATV
Test: MCF-7 ER degradation assay (cell based immuno-fluorescence)
Details: MCF-7 cells; for ER degradation ≥ 90% at 0.3 μM: ER degradation by fulvestrant at 0.3 μM is defined as 100%; for DC50: 18-22 hours incubation, 50% reduction of ERα expression, single experiment or average of two or more, read-out: MCF-7 ER degradation IC50
Method in brief: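 MCF-7 human ductal carcinoma breast cells were seeded at 3.75×10^4 cells per mL (40 μL per well) in 384 well plates with phenol red free DMEM containing 2 mM L-Glutamine and 5% (v/v) Charcoal/Dextran treated foetal calf serum. After overnight culture, compounds were acoustically dispensed, incubated 18-22 hours, then cells were formaldehyde-fixed and immunostained for ERα.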

| SMILES | ER degradation ≥ 90% at 0.3 μM | DC50 |
| --- | --- | --- |
| Cc1ncsc1-c1ccc([C@@H](CN(C)C)NC(=O)[C@@H]2C[C@@H](O)CN2C(=O)[C@@H](NC(=O)COCCOCCOCCOc2cc(F)c([C@@H]3c4[nH]c5ccccc5c4C[C@@H](C)N3CC(C)(C)F)c(F)c2)C(C)(C)C)cc1 [Example 107, (2S,4R)-1-[(2S)-2-[[2-[2-[2-[2-[3,5-Difluoro-4-[(1R,3R)-2-(2-fluoro-2-methyl-propyl)-3-methyl-1,3,4,9-tetrahydropyrido[3,4-b]indol-1-yl]phenoxy]ethoxy]ethoxy]ethoxy]acetyl]amino]-3,3-dimethyl-butanoyl]-N-[(1S)-2-(dimethylamino)-1-[4-(4-methylthiazol-5-yl)phenyl]ethyl]-4-hydroxy-pyrrolidine-2-carboxamide] | •• | 1 nM |
| Cc1ncsc1-c1ccc(CNC(=O)[C@@H]2C[C@@H](O)CN2C(=O)[C@@H](NC(=O)CCCCCCCOCCOc2cc(F)c([C@@H]3c4[nH]c5ccccc5c4C[C@@H](C)N3CC(C)(C)F)c(F)c2)C(C)(C)C)cc1 [Example 111, (2S,4R)-1-((S)-2-(8-(2-(3,5-Difluoro-4-((1R,3R)-2-(2-fluoro-2-methylpropyl)-3-methyl-2,3,4,9-tetrahydro-1H-pyrido[3,4-b]indol-1-yl)phenoxy)ethoxy)octanamido)-3,3-dimethylbutanoyl)-4-hydroxy-N-(4-(4-methylthiazol-5-yl)benzyl)pyrrolidine-2-carboxamide] | • | 0.8 nM |
| Cc1ncsc1-c1ccc(CNC(=O)[C@@H]2C[C@@H](O)CN2C(=O)[C@@H](NC(=O)COCCOCCC(F)(F)CCOc2cc(F)c([C@@H]3c4[nH]c5ccccc5c4C[C@@H](C)N3CC(C)(C)F)c(F)c2)C(C)(C)C)cc1 [Example 127, (2S,4R)-1-((S)-2-(2-(2-((5-(3,5-Difluoro-4-((R,3R)-2-(2-fluoro-2-methylpropyl)-3-methyl-2,3,4,9-tetrahydro-1H-pyrido[3,4-b]indol-1-yl)phenoxy)-3,3-difluoropentyl)oxy)ethoxy)acetamido)-3,3-dimethylbutanoyl)-4-hydroxy-N-(4-(4-methylthiazol-5-yl)benzyl)pyrrolidine-2-carboxamide] | •• | 0.8 nM |
| Cc1ncsc1-c1ccc(CNC(=O)[C@@H]2C[C@@H](O)CN2C(=O)[C@@H](NC(=O)COCCC(F)(F)CCOc2cc(F)c([C@@H]3c4[nH]c5ccccc5c4C[C@@H](C)N3CC(C)(C)F)c(F)c2)C(C)(C)C)cc1 [Example 130, (2S,4R)-1-((S)-2-(2-((5-(3,5-Difluoro-4-((1R,3R)-2-(2-fluoro-2-methylpropyl)-3-methyl-2,3,4,9-tetrahydro-1H-pyrido[3,4-b]indol-1-yl)phenoxy)-3,3-difluoropentyl)oxy)acetamido)-3,3-dimethylbutanoyl)-4-hydroxy-N-(4-(4-methylthiazol-5-yl)benzyl)pyrrolidine-2-carboxamide] | • | 0.5 nM |
| Cc1ncsc1-c1ccc(CNC(=O)[C@@H]2C[C@@H](OC(=O)[C@@H]3CCCN3)CN2C(=O)[C@@H](NC(=O)CCCCCCCCCCOc2cc(F)c([C@@H]3c4[nH]c5ccccc5c4C[C@@H](C)N3CC(C)(C)F)c(F)c2)C(C)(C)C)cc1 [Example 33, (3R,5S)-1-((S)-2-(11-(3,5-Difluoro-4-((1R,3R)-2-(2-fluoro-2-methylpropyl)-3-methyl-2,3,4,9-tetrahydro-1H-pyrido[3,4-b]indol-1-yl)phenoxy)undecanamido)-3,3-dimethylbutanoyl)-5-((4-(4-methylthiazol-5-yl)benzyl)carbamoyl)pyrrolidin-3-yl L-prolinate] | •• | 29 nM |
| Cc1ncsc1-c1ccc(CNC(=O)[C@@H]2C[C@@H](O)CN2C(=O)[C@@H](NC(=O)CCCCCCCCOc2cc(F)c([C@@H]3c4[nH]c5ccccc5c4C[C@@H](C)N3CC(C)(C)F)c(F)c2)C(C)(C)C)cc1 [Example 15, (2S,4R)-1-((S)-2-(9-(3,5-Difluoro-4-((1R,3R)-2-(2-fluoro-2-methylpropyl)-3-methyl-2,3,4,9-tetrahydro-1H-pyrido[3,4-b]indol-1-yl)phenoxy)nonanamido)-3,3-dimethylbutanoyl)-4-hydroxy-N-(4-(4-methylthiazol-5-yl)benzyl)pyrrolidine-2-carboxamide] | • | 3.9 nM |
| Cc1ncsc1-c1ccc(CNC(=O)[C@@H]2C[C@@H](O)CN2C(=O)[C@@H](NC(=O)COCCOCCOCCOc2cc(F)c([C@@H]3c4[nH]c5ccccc5c4C[C@@H](C)N3C[C@H](C)CO)c(F)c2)C(C)(C)C)cc1 [Example 101, (2S,4R)-1-((S)-2-(tert-butyl)-14-(3,5-difluoro-4-((1R,3R)-2-((S)-3-hydroxy-2-methylpropyl)-3-methyl-2,3,4,9-tetrahydro-1H-pyrido[3,4-b]indol-1-yl)phenoxy)-4-oxo-6,9,12-trioxa-3-azatetradecanoyl)-4-hydroxy-N-(4-(4-methylthiazol-5-yl)benzyl)pyrrolidine-2-carboxamide] | • | 1.8 nM |
| Cc1ncsc1-c1ccc(CNC(=O)[C@@H]2C[C@@H](O)CN2C(=O)[C@@H](NC(=O)C(F)(F)OCCCOCCCOc2cc(F)c([C@@H]3c4[nH]c5ccccc5c4C[C@@H](C)N3CC(C)(C)F)c(F)c2)C(C)(C)C)cc1 [Example 119, (2S,4R)-1-((S)-2-(2-(3-(3-(3,5-Difluoro-4-((1R,3R)-2-(2-fluoro-2-methylpropyl)-3-methyl-2,3,4,9-tetrahydro-1H-pyrido[3,4-b]indol-1-yl)phenoxy)propoxy)propoxy)-2,2-difluoroacetamido)-3,3-dimethylbutanoyl)-4-hydroxy-N-(4-(4-methylthiazol-5-yl)benzyl)pyrrolidine-2-carboxamide] | • | 1.4 nM |
| Cc1ncsc1-c1ccc(CNC(=O)[C@@H]2C[C@@H](O)CN2C(=O)[C@@H](NC(=O)CCCCOCCCCCOc2cc(F)c([C@@H]3c4[nH]c5ccccc5c4C[C@@H](C)N3CC(C)(C)F)c(F)c2)C(C)(C)C)cc1 [Example 113, (2S,4R)-1-((S)-2-(5-((5-(3,5-Difluoro-4-((1R,3R)-2-(2-fluoro-2-methylpropyl)-3-methyl-2,3,4,9-tetrahydro-1H-pyrido[3,4-b]indol-1-yl)phenoxy)pentyl)oxy)pentanamido)-3,3-dimethylbutanoyl)-4-hydroxy-N-(4-(4-methylthiazol-5-yl)benzyl)pyrrolidine-2-carboxamide] | •• | 0.9 nM |
| Cc1ncsc1-c1ccc(CNC(=O)[C@@H]2C[C@@H](O)CN2C(=O)[C@@H](NC(=O)COCCCCCNCCOc2cc(F)c([C@@H]3c4[nH]c5ccccc5c4C[C@@H](C)N3CC(C)(C)F)c(F)c2)C(C)(C)C)cc1 [Example 48, (2S,4R)-1-((S)-2-(2-((5-((2-(3,5-difluoro-4-((1R,3R)-2-(2-fluoro-2-methylpropyl)-3-methyl-2,3,4,9-tetrahydro-1H-pyrido[3,4-b]indol-1-yl)phenoxy)ethyl)amino)pentyl)oxy)acetamido)-3,3-dimethylbutanoyl)-4-hydroxy-N-(4-(4-methylthiazol-5-yl)benzyl)pyrrolidine-2-carboxamide] | • | 1.8 nM |
| Cc1ncsc1-c1ccc(CNC(=O)[C@@H]2C[C@@H](O)CN2C(=O)[C@@H](NC(=O)COCCOCCOCCOCCOc2cc(F)c([C@@H]3c4[nH]c5ccccc5c4C[C@@H](C)N3CC(C)(C)F)c(F)c2)C(C)(C)C)cc1 [Example 37, (2S,4R)-1-((S)-2-(tert-Butyl)-17-(3,5-difluoro-4-((1R,3R)-2-(2-fluoro-2-methylpropyl)-3-methyl-2,3,4,9-tetrahydro-1H-pyrido[3,4-b]indol-1-yl)phenoxy)-4-oxo-6,9,12,15-tetraoxa-3-azaheptadecanoyl)-4-hydroxy-N-(4-(4-methylthiazol-5-yl)benzyl)pyrrolidine-2-carboxamide] | •• | 3 nM |
| Cc1ncsc1-c1ccc([C@H](C)NC(=O)[C@@H]2C[C@@H](O)CN2C(=O)[C@@H](NC(=O)COCCCCOCCCOc2cc(F)c([C@@H]3c4[nH]c5ccccc5c4C[C@@H](C)N3CC(C)(C)F)c(F)c2)C(C)(C)C)cc1 [Example 154, (2S,4R)-1-((S)-2-(2-(4-(3-(3,5-Difluoro-4-((1R,3R)-2-(2-fluoro-2-methylpropyl)-3-methyl-2,3,4,9-tetrahydro-1H-pyrido[3,4-b]indol-1-yl)phenoxy)propoxy)butoxy)acetamido)-3,3-dimethylbutanoyl)-4-hydroxy-N—((S)-1-(4-(4-methylthiazol-5-yl)phenyl)ethyl)pyrrolidine-2-carboxamide] | • | 0.7 nM |
